Test results: publication PMC10897015, “Investigation of anti-nociceptive, anti-inflammatory potential and ADMET studies of pure compounds isolated from Isodon rugosus Wall. ex Benth” (Frontiers in Pharmacology, 2024)
Several values for one entry are separate records, joined by “and”; a condition that tells them apart may be missing. Identical values can stand only once. Marks after values point to notes of the source that are not given here.

Experiments:
mice = assay: Carrageenan-induced paw edema; format: in vivo; settings: for % edema volume inhibition (mean): aspirin 10 mg/kg; for Paw edema percent inhibition, individual values / Paw edema, individual values: single animals
Method: The animals under study were divided into different groups. Prior to the experiment, the animals had only access to water. […] Additionally, the isolated compounds being tested were given 30 min before injecting 0.05 ml of 1% carrageenan into the sub-plantar region of the paw. To measure the volume changes in the paw, a digital plethysmometer was employed. Readings were taken before and after the carrageenan injection at hourly intervals over a total period of 5 h.

Swiss albino mice [1] = assay: Hot plate test, involvement of adrenergic receptors; format: in vivo; settings: single animals
Method: The analgesic effects of the isolated compounds were measured using the hot plate method at a monitored temperature of 55 ± 0.2°C. The Swiss albino mice were positioned on the heated surface of the hot plate, and the period from placement to the onset of licking their hind paws or starting jump movements was noted as the response latency (thermal reactions). The test compounds were injected intraperitoneally. […] The animal models were checked for thermal reactions at various time intervals after sample administration.
The outcomes of the positive control and tested compounds were compared in animals pretreated with yohimbine. […] Additionally, clonidine at a dose of 3 μg/kg was intravenously administered. The animals were then subjected to the hot plate method, as reported before.

Swiss albino mice [2] = assay: Acetic acid-induced writhing test; format: in vivo; settings: for % analgesic activity (writhing inhibition) / Mean writhes: dose 10 mg/kg, oral; for Mean writhes: writhes counted 5-30 min after acetic acid, 10 mg/kg
Method: An anti-nociceptive assessment was performed on Swiss albino mice of both sexes, sourced from the National Institute of Health, Islamabad, Pakistan. […] Mice of either sex were divided into different groups, with five mice in each group. The test samples were carefully administered orally, with doses of 250, 500, 1000, and 2000 mg/kg.
I. rugosus was evaluated for its analgesic potential through an acetic acid-induced writhing test. Oral administration of the test samples was carried out using specified doses. After 30 min of interval, 10 ml/kg of acetic acid (0.6%) was injected into the mice. Group I served as the control and received 0.5% Tween-80 (3 ml/kg), group II received diclofenac sodium (10 mg/kg), and groups III and IV received test compounds. The count of writhes was recorded between 5 and 30 min, following the i/p injection of acetic acid ([Franzotti et al., 2000]).

5-LOX = biological target: T1, 5-LOX (Glycine max, UniProt P08170); assay: Lipoxygenase (5-LOX) inhibitory activity; format: biochemical
T1 sequence (P08170 1-839): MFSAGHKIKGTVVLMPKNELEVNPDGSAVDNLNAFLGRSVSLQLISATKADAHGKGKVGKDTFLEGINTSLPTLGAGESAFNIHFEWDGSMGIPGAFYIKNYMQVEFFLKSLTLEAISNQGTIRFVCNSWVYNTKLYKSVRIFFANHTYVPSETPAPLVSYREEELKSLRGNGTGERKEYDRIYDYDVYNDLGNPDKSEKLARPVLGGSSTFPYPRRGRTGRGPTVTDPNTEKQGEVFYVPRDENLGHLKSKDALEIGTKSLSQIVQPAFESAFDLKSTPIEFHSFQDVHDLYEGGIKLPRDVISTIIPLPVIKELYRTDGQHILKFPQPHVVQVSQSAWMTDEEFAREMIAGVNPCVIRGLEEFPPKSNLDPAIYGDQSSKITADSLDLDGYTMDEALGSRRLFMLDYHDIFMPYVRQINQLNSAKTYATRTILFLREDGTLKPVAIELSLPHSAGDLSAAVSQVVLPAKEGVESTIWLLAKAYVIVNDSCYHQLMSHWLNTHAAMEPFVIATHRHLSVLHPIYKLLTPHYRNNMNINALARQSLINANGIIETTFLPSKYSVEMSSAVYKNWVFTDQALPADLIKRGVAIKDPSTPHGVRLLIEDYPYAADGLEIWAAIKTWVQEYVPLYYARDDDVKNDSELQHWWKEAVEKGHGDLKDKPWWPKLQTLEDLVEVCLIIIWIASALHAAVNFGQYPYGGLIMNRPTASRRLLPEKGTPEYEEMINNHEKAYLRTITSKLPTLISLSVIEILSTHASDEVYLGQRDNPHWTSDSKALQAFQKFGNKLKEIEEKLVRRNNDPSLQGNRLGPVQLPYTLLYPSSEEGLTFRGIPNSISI
Method: The enzyme solution with a concentration of 10,000 U/ml was prepared. […] A solution (80 mM) of linoleic acid (substrate) was made. Likewise, a 50 mM phosphate buffer solution with a pH of 6.3 was prepared. The substrate, enzyme, and buffer were combined in equal proportions, each in a 2 ml volume. […] The inhibition percentage was determined by comparing the absorbance of the test samples with that of the positive control.

CC(=O)Oc1ccccc1C(=O)O [Aspirin, aspirin, reference compound]
% edema volume inhibition (mean) (mice; 1st hour after carrageenan): 51.772% | % edema volume inhibition (mean) (mice; 1st hour after carrageenan, listed as aspirin): 51.77 ± 0.10% | % edema volume inhibition (mean) (mice; 2nd hour after carrageenan): 56.106% | % edema volume inhibition (mean) (mice; 3rd hour after carrageenan): 57.334% | % edema volume inhibition (mean) (mice; 4th hour after carrageenan): 60.956% | % edema volume inhibition (mean) (mice; 5th hour after carrageenan): 57.694% | % edema volume inhibition (mean) (mice; 5th hour after carrageenan, listed as aspirin): 57.77 ± 0.40% | Paw edema percent inhibition, individual values (mice; hour 1): 52.34% and 51.04% and 52.35% and 51.83% and 51.3% | Paw edema, individual values (mice; hour 1): 0.362 and 0.375 and 0.365 and 0.369 and 0.373 | Paw edema percent inhibition, individual values (mice; hour 2): 59.13% and 52.65% and 58.06% and 56.7% and 53.99% | Paw edema, individual values (mice; hour 2): 0.302 and 0.349 and 0.31 and 0.32 and 0.34 | Paw edema percent inhibition, individual values (mice; hour 3): 59.52% and 56.85% and 58.59% and 57.12% and 54.59% | Paw edema, individual values (mice; hour 3): 0.304 and 0.322 and 0.311 and 0.341 | Paw edema percent inhibition, individual values (mice; hour 4): 63.3% and 60.42% and 61.07% and 60.88% and 59.11% | Paw edema, individual values (mice; hour 4): 0.275 and 0.301 and 0.297 and 0.312 | Paw edema percent inhibition, individual values (mice; hour 5): 59.25% and 55.95% and 53.49% and 59.23% and 60.55% | Paw edema, individual values (mice; hour 5): 0.298 and 0.322 and 0.34 and 0.289

Clc1cccc(Cl)c1N=C1NCCN1 [Clonidine, reference compound]
Hot plate analysis (adrenergic), individual values (Swiss albino mice [1]; 30 Minutes): 9.56 and 8.88 and 10.88 | Hot plate analysis (adrenergic), individual values (Swiss albino mice [1]; 45 Minutes): 10.6 and 9.32 and 10.99 | Hot plate analysis (adrenergic), individual values (Swiss albino mice [1]; 15 minutes): 9.26 and 10.12 and 10.98 | Hot plate analysis (adrenergic), individual values (Swiss albino mice [1]; 60 minutes): 8.2 and 10.01 and 7.59 | Hot plate analysis (adrenergic), individual values (Swiss albino mice [1]; 90 minutes): 8.4 and 10.26 and 9.3

O=C(O)Cc1ccccc1Nc1c(Cl)cccc1Cl [Positive control, diclofenac sodium, reference compound]
Writhes, individual values (Swiss albino mice [2]; 10mg, single animals): 16.1 and 17.8 and 15.6 | % analgesic activity (writhing inhibition) (Swiss albino mice [2]): 73.02^*** % | % analgesic activity (writhing inhibition) (Swiss albino mice [2]; listed as positive control): 73.02% | Mean writhes (Swiss albino mice [2]): 16.5 ± 0.76 | Mean writhes (Swiss albino mice [2]; listed as Positive Control): 16.5

CC(c1cc2ccccc2s1)N(O)C(N)=O (stereo not shown) [Zileuton, reference compound]
inhibition at 62.5 µg/mL (5-LOX; read-out: % inhibition 5-LOX (mean ± SEM), 62.5 µg/ml): 79.8 ± 0.37% | inhibition at 250 µg/mL (5-LOX; read-out: % inhibition 5-LOX (mean ± SEM), 250 µg/ml): 88.98 ± 0.85% | inhibition at 500 µg/mL (5-LOX; read-out: % inhibition 5-LOX (mean ± SEM), 500 µg/ml): 92.22 ± 0.11% | inhibition at 1000 µg/mL (5-LOX; read-out: % inhibition 5-LOX (mean ± SEM), 1000 µg/ml): 95.2 ± 0.15%
